Assay results taken from patent US12421208B2, “Chemical compounds” (ASTRAZENECA AB, priority 2020, dated 2025).

Legend:
hERG = hERG (Homo sapiens, UniProt Q12809); assay: hERG inhibition
Description: It is well known that blockade of the cardiac ion channel coded by human ether-n-gogo-related gene (hERG) is a risk factor in drug discovery and development. Blockage of hERG can cause safety problems such as cardiac arrhythmia. Advantageously, the compounds of Formula I have low hERG activity.

DLD1 cells = assay: PARP proliferation assay (7 day compound dosing), WT DLD1; format: cell-based; conditions: Homo sapiens, 168 h; WT DLD-1 cells, 7 day dosing; read-out: WT DLD-1 prolif. 7 d IC50
Method: (§1) PARP Proliferation Assay (7 Day Compound Dosing)
(§2) DLD1 and BRCA2 (−/−) DLD1 cells were harvested to a density of 5000 cells/ml and 2.5E4 cells/ml respectively in complete media, 40 μL/well seeded into 384-well plates (Greiner, Kremsmunster, Austria; 781090) using a Multidrop Combi then incubated at 37° C., 5% CO2 overnight. Next day (Day 1) using a Multidrop Combi add sytoxgreen (5 ul, 2 uM) and saponin (10 ul, 0.25% stock) to a day 0 plate, seal the plate using a black adhesive lid and incubate for >3 h at rt. Cells were imaged using Cell Insight (Thermo Fisher) fitted with a 4× objective. Test compounds are added using an Echo 555 and placed in incubator maintained at 37° C., 5% CO2 and incubated for 7 days. On Day 8 add sytox green (5 ul, 2 uM) and then saponin (10 ul, 0.25% stock) to plates, seal the plate using a black adhesive lid and incubate for >3 h at rt. Read all cells on the Cell Insight with 4× Objective. The rate of proliferation is determined in Genedata by assessing the total cell number output from the Cell Insight for Day 0 and Day 8 plates.

BRCA2 (−/−) DLD1 cells = assay: PARP proliferation assay (7 day compound dosing), BRCA2 (−/−) DLD1; format: cell-based; conditions: Homo sapiens, DLD-1, 168 h, BRCA2 −/− DLD-1 cells, 7 day dosing; read-out: BRCA2 −/− DLD-1 prolif. 7 d IC50
Method: as §1, §2

hERG, sequence (Q12809 whole entry): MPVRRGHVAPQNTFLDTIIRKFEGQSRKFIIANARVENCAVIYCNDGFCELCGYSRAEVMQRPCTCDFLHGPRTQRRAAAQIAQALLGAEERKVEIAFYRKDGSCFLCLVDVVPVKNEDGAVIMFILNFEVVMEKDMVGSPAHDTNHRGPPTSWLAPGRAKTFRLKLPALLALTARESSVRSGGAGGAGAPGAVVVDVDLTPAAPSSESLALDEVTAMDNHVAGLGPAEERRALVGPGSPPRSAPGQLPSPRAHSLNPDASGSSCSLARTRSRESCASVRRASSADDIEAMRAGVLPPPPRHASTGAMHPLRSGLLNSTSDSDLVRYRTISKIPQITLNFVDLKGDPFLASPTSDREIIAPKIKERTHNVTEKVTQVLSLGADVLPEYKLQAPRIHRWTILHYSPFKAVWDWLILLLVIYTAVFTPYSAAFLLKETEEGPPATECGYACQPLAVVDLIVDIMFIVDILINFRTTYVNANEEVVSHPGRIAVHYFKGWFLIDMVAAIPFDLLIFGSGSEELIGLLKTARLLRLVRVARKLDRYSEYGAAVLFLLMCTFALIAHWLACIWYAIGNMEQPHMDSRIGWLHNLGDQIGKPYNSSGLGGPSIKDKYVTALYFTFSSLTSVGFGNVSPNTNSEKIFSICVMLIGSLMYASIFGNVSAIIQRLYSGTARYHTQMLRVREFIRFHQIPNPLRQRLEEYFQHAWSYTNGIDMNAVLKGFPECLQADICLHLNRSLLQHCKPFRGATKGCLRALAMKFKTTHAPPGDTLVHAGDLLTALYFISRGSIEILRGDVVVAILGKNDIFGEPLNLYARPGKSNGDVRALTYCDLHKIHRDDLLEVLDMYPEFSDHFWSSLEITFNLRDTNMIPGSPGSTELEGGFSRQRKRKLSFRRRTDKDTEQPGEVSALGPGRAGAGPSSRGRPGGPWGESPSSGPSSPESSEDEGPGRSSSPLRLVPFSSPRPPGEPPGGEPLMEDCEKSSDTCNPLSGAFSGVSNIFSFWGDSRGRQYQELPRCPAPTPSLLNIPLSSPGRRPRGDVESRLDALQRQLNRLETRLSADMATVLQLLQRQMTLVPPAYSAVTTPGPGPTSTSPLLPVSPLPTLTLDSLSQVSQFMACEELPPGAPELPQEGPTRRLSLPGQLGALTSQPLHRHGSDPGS

Structure (SMILES) | IC50 (DLD1 cells) [nM] | IC50 (BRCA2 (−/−) DLD1 cells) [nM] | IC50 (hERG) [nM]
CNC(=O)c1ccc(N2CCN(Cc3ccc4nc(C)c(=O)[nH]c4c3C)CC2)c(F)n1 [Example 1, 5-[4-[(2,5-dimethyl-3-oxo-4H-quinoxalin-6-yl)methyl]piperazin-1-yl]-6-fluoro-N-methyl-pyridine-2-carboxamide] | 24000 | 14 | > 40000
CNC(=O)c1ccc(N2CCN(Cc3ccc4nc(C)c(=O)[nH]c4c3C)CC2)cn1 [Example 2, 5-[4-[(2,5-dimethyl-3-oxo-4H-quinoxalin-6-yl)methyl]piperazin-1-yl]-N-methyl-pyridine-2-carboxamide] | – | 734 | > 40000
CNC(=O)c1ccc(N2CCN(Cc3ccc4nc(C)c(=O)[nH]c4c3C)CC2)c(C)n1 [Example 4, 5-[4-[(2,5-dimethyl-3-oxo-4H-quinoxalin-6-yl)methyl]piperazin-1-yl]-N,6-dimethyl-pyridine-2-carboxamide] | > 14000 | 81 | > 40000
Cc1nc2ccc(CN3CCN(c4ccc(C(N)=O)nc4F)CC3)c(C)c2[nH]c1=O [Example 5, 5-[4-[(2,5-dimethyl-3-oxo-4H-quinoxalin-6-yl)methyl]piperazin-1-yl]-6-fluoro-pyridine-2-carboxamide] | – | 2890 | –
Cc1nc(C(N)=O)ccc1N1CCN(Cc2ccc3nc(C)c(=O)[nH]c3c2C)CC1 [Example 7, 5-[4-[(2,5-dimethyl-3-oxo-4H-quinoxalin-6-yl)methyl]piperazin-1-yl]-6-methyl-pyridine-2-carboxamide] | > 30000 | 8430 | –
CNC(=O)c1ccc(N2CCN(Cc3ccc4nc(C)c(=O)[nH]c4c3F)CC2)c(C(F)F)n1 [Example 21, 6-(difluoromethyl)-5-[4-[(5-fluoro-2-methyl-3-oxo-4H-quinoxalin-6-yl)methyl]piperazin-1-yl]-N-methyl-pyridine-2-carboxamide] | – | 1420 | > 40000
CCc1nc2ccc(CN3CCN(c4ccc(C(N)=O)nc4)CC3)c(F)c2[nH]c1=O [Example 25, 5-[4-[(2-ethyl-5-fluoro-3-oxo-4H-quinoxalin-6-yl)methyl]piperazin-1-yl]pyridine-2-carboxamide] | – | 297 | –
CNC(=O)c1ccc(N2CCN(Cc3ccc4nc(C)c(=O)[nH]c4c3F)CC2)c(C)n1 [Example 31, 5-[4-[(5-fluoro-2-methyl-3-oxo-4H-quinoxalin-6-yl)methyl]piperazin-1-yl]-N,6-dimethyl-pyridine-2-carboxamide] | > 30000 | – | > 40000
CNC(=O)c1ccc(N2CCN(Cc3ccc4ncc(=O)[nH]c4c3F)CC2)cn1 [Example 33, 5-[4-[(5-fluoro-3-oxo-4H-quinoxalin-6-yl)methyl]piperazin-1-yl]-N-methyl-pyridine-2-carboxamide] | – | > 30000 | –
CNC(=O)c1ccc(N2CCN(Cc3ccc4ncc(=O)[nH]c4c3F)CC2)c(Cl)n1 [Example 34, 6-chloro-5-[4-[(5-fluoro-3-oxo-4H-quinoxalin-6-yl)methyl]piperazin-1-yl]-N-methyl-pyridine-2-carboxamide] | – | 8440 | –
CNC(=O)c1ccc(N2CCN(Cc3ccc4ncc(=O)[nH]c4c3F)CC2)c(C)n1 [Example 35, 5-[4-[(5-fluoro-3-oxo-4H-quinoxalin-6-yl)methyl]piperazin-1-yl]-N,6-dimethyl-pyridine-2-carboxamide] | > 30000 | 10300 | –
CNC(=O)c1ccc(N2CCN(Cc3ccc4ncc(=O)[nH]c4c3F)CC2)c(F)n1 [Example 36, 6-fluoro-5-[4-[(5-fluoro-3-oxo-4H-quinoxalin-6-yl)methyl]piperazin-1-yl]-N-methyl-pyridine-2-carboxamide] | – | 16200 | –
CNC(=O)c1ccc(N2CCN(Cc3ccc4nc(OC)c(=O)[nH]c4c3F)CC2)cn1 [Example 38, 5-[4-[(5-fluoro-2-methoxy-3-oxo-4H-quinoxalin-6-yl)methyl]piperazin-1-yl]-N-methyl-pyridine-2-carboxamide] | – | 547 | > 40000
CCc1nc2ccc(CN3CCN(c4ccc(C(=O)NC)nc4)CC3)c(C)c2[nH]c1=O [Example 44, 5-[4-[(2-ethyl-5-methyl-3-oxo-4H-quinoxalin-6-yl)methyl]piperazin-1-yl]-N-methyl-pyridine-2-carboxamide] | – | > 30000 | –
CNC(=O)c1ccc(N2CCN(Cc3ccc4nc(C(F)(F)F)c(=O)[nH]c4c3F)CC2)c(C)n1 [Example 47, 5-[4-[[5-fluoro-3-oxo-2-(trifluoromethyl)-4H-quinoxalin-6-yl]methyl]piperazin-1-yl]-N,6-dimethyl-pyridine-2-carboxamide] | – | 58 | > 40000
CNC(=O)c1ccc(N2CCN(Cc3ccc4nc(C(F)(F)F)c(=O)[nH]c4c3F)CC2)c(Cl)n1 [Example 49, 6-chloro-5-[4-[[5-fluoro-3-oxo-2-(trifluoromethyl)-4H-quinoxalin-6-yl]methyl]piperazin-1-yl]-N-methyl-pyridine-2-carboxamide] | – | 41 | > 40000
CNC(=O)c1ccc(N2CCN(Cc3ccc4nc(C(F)(F)F)c(=O)[nH]c4c3F)CC2)cn1 [Example 50, 5-[4-[[5-fluoro-3-oxo-2-(trifluoromethyl)-4H-quinoxalin-6-yl]methyl]piperazin-1-yl]-N-methyl-pyridine-2-carboxamide] | – | 136 | > 40000

Further compounds by falling IC50 (BRCA2 (−/−) DLD1 cells), results first:

IC50 (DLD1 cells) [nM] | IC50 (BRCA2 (−/−) DLD1 cells) [nM] | Structure (SMILES) | IC50 (hERG) [nM]
– | 13 | CCNC(=O)c1ccc(N2CCN(Cc3ccc4nc(C)c(=O)[nH]c4c3F)CC2)c(C)n1 [Example 46, N-ethyl-5-[4-[(5-fluoro-2-methyl-3-oxo-4H-quinoxalin-6-yl)methyl]piperazin-1-yl]-6-methyl-pyridine-2-carboxamide] | –
– | 10 | CNC(=O)c1ccc(N2CCN(Cc3ccc4nc(C(F)F)c(=O)[nH]c4c3F)CC2)c(C)n1 [Example 37, 5-[4-[[2-(difluoromethyl)-5-fluoro-3-oxo-4H-quinoxalin-6-yl]methyl]piperazin-1-yl]-N,6-dimethyl-pyridine-2-carboxamide] | –
– | 10 | CCc1nc2ccc(CN3CCN(c4ccc(C(=O)NC)nc4F)CC3)c(C)c2[nH]c1=O [Example 43, 5-[4-[(2-ethyl-5-methyl-3-oxo-4H-quinoxalin-6-yl)methyl]piperazin-1-yl]-6-fluoro-N-methyl-pyridine-2-carboxamide] | –
25000 | 8 | CNC(=O)c1ccc(N2CCN(Cc3ccc4nc(C)c(=O)[nH]c4c3C)CC2)c(Cl)n1 [Example 3, 6-chloro-5-[4-[(2,5-dimethyl-3-oxo-4H-quinoxalin-6-yl)methyl]piperazin-1-yl]-N-methyl-pyridine-2-carboxamide] | > 40000
– | 8 | CNC(=O)c1ccc(N2CCN(Cc3ccc4nc(OC)c(=O)[nH]c4c3F)CC2)c(F)n1 [Example 39, 6-fluoro-5-[4-[(5-fluoro-2-methoxy-3-oxo-4H-quinoxalin-6-yl)methyl]piperazin-1-yl]-N-methyl-pyridine-2-carboxamide] | > 40000
– | 7 | CNC(=O)c1ccc(N2CCN(Cc3ccc4nc(OC)c(=O)[nH]c4c3F)CC2)c(C)n1 [Example 40, 5-[4-[(5-fluoro-2-methoxy-3-oxo-4H-quinoxalin-6-yl)methyl]piperazin-1-yl]-N,6-dimethyl-pyridine-2-carboxamide] | > 40000
– | 7 | CNC(=O)c1ccc(N2CCN(Cc3ccc4nc(OC)c(=O)[nH]c4c3F)CC2)c(Cl)n1 [Example 41, 6-chloro-5-[4-[(5-fluoro-2-methoxy-3-oxo-4H-quinoxalin-6-yl)methyl]piperazin-1-yl]-N-methyl-pyridine-2-carboxamide] | > 40000
– | 6 | CNC(=O)c1ccc(N2CCN(Cc3ccc4nc(C(C)(F)F)c(=O)[nH]c4c3F)CC2)c(C)n1 [Example 19, 5-[4-[[2-(1,1-difluoroethyl)-5-fluoro-3-oxo-4H-quinoxalin-6-yl]methyl]piperazin-1-yl]-N,6-dimethyl-pyridine-2-carboxamide] | > 40000
– | 6 | CCc1nc2ccc(CN3CCN(c4ccc(C(=O)NC)nc4C)CC3)c(C)c2[nH]c1=O [Example 42, 5-[4-[(2-ethyl-5-methyl-3-oxo-4H-quinoxalin-6-yl)methyl]piperazin-1-yl]-N,6-dimethyl-pyridine-2-carboxamide] | –
– | 6 | CCNC(=O)c1ccc(N2CCN(Cc3ccc4nc(C)c(=O)[nH]c4c3F)CC2)c(F)n1 [Example 45, N-ethyl-6-fluoro-5-[4-[(5-fluoro-2-methyl-3-oxo-4H-quinoxalin-6-yl)methyl]piperazin-1-yl]pyridine-2-carboxamide] | –
– | 4 | CCc1nc2ccc(CN3CCN(c4ccc(C(=O)NC)nc4Cl)CC3)c(F)c2[nH]c1=O [Example 28, 6-chloro-5-[4-[(2-ethyl-5-fluoro-3-oxo-4H-quinoxalin-6-yl)methyl]piperazin-1-yl]-N-methyl-pyridine-2-carboxamide] | > 38000
